Where a SMILES comes first, the peptide text is derived from it. [ ]: non-standard residue; d: D form. Aib = CC(C)(N)C(=O)O
What was measured:
[1] = Chemical stability in phosphate buffer (UPLC purity); format: physicochemical
Protocol: The compound purity was calculated by the percentage area of the main peak in the chromatograms relative to the total area of all integrated peaks, normalized by the purity of the sample on day 0 for the purity.

[2] = Pharmacokinetics in rats after subcutaneous injection; format: in vivo, SD rats; settings: plasma
Protocol: (1) Animals were grouped according to Table 12, and were given free access to water and food before administration.
• Sampling time: 0 min pre-dose, and 2 min, 4 min, 7 min, 10 min, 20 min, 40 min, 1 h and 2 h post-dose. Blood was collected from rats by jugular catheterization.
• 1) 0.2 mL of whole blood was collected at each time point into a centrifuge tube containing EDTA-K2; • 2) The blood samples were centrifuged at 4000 g at 4° C. for 5 min, and separated to give the plasma; • 3) The plasma samples were cryopreserved at −80° C.
The mixture was vortexed for 5 min and centrifuged at a low temperature for 10 min. 100 μL of the supernatant was taken and added to 100 μL of 0.1% formic acid aqueous solution. The mixture was mixed well, and loaded on the instrument for analysis; • Liquid chromatography and mass spectrometry analysis: LC-30A liquid chromatography system (Shimadzu, Japan) and API 5500 liquid chromatography-triple quadrupole mass spectrometer (Analyst Software data processing system, AB Sciex, USA) were used. The chromatographic column was nanomicro Unisil C18aq (4.6 mm×150 mm, 5 μm) chromatographic column; the column temperature was 40° C.; the mobile phase A was 0.1% formic acid aqueous solution, and the mobile phase B was 0.1% formic acid in acetonitrile; the flow rate was 0.5 mL/min; the injection volume was 20 μL; the gradient is shown in Table 13 below. The mass spectrum was obtained using an electrospray ionization (ESI) source, a positive ion analysis mode and a multi reaction monitoring (MRM) scanning mode.
The plasma concentration of the test compounds was measured by HPLC-MS/MS. The plasma concentration-time curve was plotted, and the pharmacokinetic parameters were calculated by PKSolver.

[3] = 4° C., phosphate buffer pH 7.4, 1 mg/mL
[4] = 25° C., phosphate buffer pH 7.4, 1 mg/mL
[5] = male SD rats, single SC injection, Dasiglucagon 5 mg/kg, 40 5.06 mg/kg

- Purity Day 7 [1, 3]: 99.40%
- Purity Day 14 [1, 3]: 99.87%
- Purity Day 21 [1, 3]: 100.27%
- Purity Day 28 [1, 3]: 100.59%
- Purity Day 7 [1, 4]: 99.70%
- Purity Day 14 [1, 4]: 99.54%
- Purity Day 21 [1, 4]: 97.63%
- Purity Day 28 [1, 4]: 97.90%
- Purity Day 0 ([1]; phosphate buffer pH 7.4, 1 mg/mL, day 0 (normalization)): 100.00%
- AUClast/D [2, 5]: 176 h·ng/mL per mg/kg
- T1/2 [2, 5]: 24.8 min
- Tmax ([2]; male, SD, rat, sc): 7.02 min
- half-life ([2]; male, SD, rat, sc, male SD rats, single SC injection, Dasiglucagon 5 mg/kg, 40 5.06 mg/kg): 24.6 min
- bioavailability ([2]; male, SD, rat, sc, read-out: Bioavailability (F %)): 88.2%
Structure (SMILES): CC(C)C[C@H](NC(=O)[C@H](Cc1ccc(O)cc1)NC(=O)[C@H](CCCCN)NC(=O)[C@H](CO)NC(=O)[C@H](Cc1ccc(O)cc1)NC(=O)[C@H](CC(=O)O)NC(=O)[C@H](CO)NC(=O)[C@@H](NC(=O)[C@H](Cc1ccccc1)NC(=O)[C@@H](NC(=O)CNC(=O)[C@H](CCC(N)=O)NC(=O)[C@H](CO)NC(=O)[C@@H](N)Cc1c[nH]cn1)[C@@H](C)O)[C@@H](C)O)C(=O)N[C@@H](CC(=O)O)C(=O)N[C@@H](CC(C)C)C(=O)NC(C)(C)C(=O)N[C@@H](CCCNC(=N)N)C(=O)N[C@@H](C)C(=O)N[C@@H](CCC(N)=O)C(=O)N[C@@H](CCC(=O)O)C(=O)N[C@@H](Cc1ccccc1)C(=O)N[C@H](C(=O)N[C@@H](CCC(N)=O)C(=O)N[C@@H](Cc1c[nH]c2ccccc12)C(=O)N[C@@H](CC(C)C)C(=O)N[C@@H](CCC(=O)O)C(=O)N[C@@H](CO)C(=O)N[C@H](C(=O)O)[C@@H](C)O)C(C)C [Compound 40] (H-HSQGTFTSDYSKYLDL[Aib]RAQEFVQWLEST-OH)
- Chemical stability in phosphate buffers (in words) [1]: better chemical stability in phosphate buffers than that of Dasiglucagon

Reference: patent US20240279298A1 (BEIJING TUO JIE BIOPHARMACEUTICAL CO. LTD., priority 2021, published 2024)
